Results on nine compounds are retold here after ChEMBL document CHEMBL1201862, “PubChem BioAssay data set” (2004).

Common to all, as to assay: growth of human tumour cells (NCI), 48 h
Test [1] deals with RPMI-8226.
For test [2], the system named is NCI-H522.
Test [3] has as its system OVCAR-3.
Test [4] relates to ACHN.
Test [5] deals with HCT-15.
Test [6] concerns LOX IMVI.
The subject of test [7] is M14.
In test [8] the test system is CAKI-1.
The test system of test [9] is EKVX.
Test [10] has as its system PC-3.
The subject of test [11] is MCF7.
The test system of test [12] is HT-29.
Test [13] concerns OVCAR-8.
The test system of test [14] is K562.
Test [15] concerns NCI-H460.
Test [16] deals with SK-MEL-28.
Test [17] relates to SK-OV-3.
The subject of test [18] is SNB-75.
For test [19], the system named is SR.
The test system of test [20] is SF-539.

Where “and” joins values, the source holds several entries; their conditions need not be identical. Equal values may be shown once.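 Compound exposure: 48 hours, 5 concentrations, 96-well plates. Here, GI50 denotes the concentration required for 50% inhibition of growth.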 Calls of active or inactive are those of the source. Cut-off read from the data, not from the text of the source: active = GI50 up to about 1.1 µM and inactive = higher.

With `CC(C)=NN/C(=N\c1ccc(Cl)cc1)NS(=O)(=O)c1ccc(C)cc1`, the GI50 in test [1] was 44.2 µM (inactive); in [2], 56.8 µM (inactive); in test [3], 31.1 µM (inactive); in [4], 40.5 µM (inactive); in test [5] it was over 100 µM; in test [6], 87.7 µM (inactive). The GI50 in test [7] was > 100 µM (inactive); in test [8] it was 62.2 µM (inactive); in test [9], 52.6 µM (inactive); in test [10], 41.2 µM (inactive); in test [11], 58.5 µM (inactive); in [12], > 100 µM (inactive). In addition, the GI50 was > 100 µM (inactive) in test [13], 69.3 µM (inactive) in [14], 57.8 µM (inactive) in test [15] and 85.5 µM (inactive) in [16].

For the compound `Cn1cc2ccccc2c1-c1nc(F)nc(Oc2ccc3c(c2)CC[C@@H]2C3CC[C@@]3(C)C2CC[C@@H]3O)n1` (stereo partly specified), the GI50 is 5.94 µM (inactive) in test [1]; 3.4 µM (inactive) in test [2]; 9.33 µM (inactive) in test [3]; 19.3 µM (inactive) in test [17]; 17.7 µM (inactive) in [4]; 6.18 µM in test [5]. Moreover, the GI50 is 5.79 µM (inactive) in test [6]; 16.7 µM (inactive) in test [18]; 8.71 µM (inactive) in [7]; 11.6 µM (inactive) in test [8]; 3.36 µM (inactive) in [19]; 15.6 µM (inactive) in test [9]. Moreover, the GI50 in test [20] is 12.8 µM (inactive); in test [12], 18.7 µM (inactive); in [13], 7.45 µM (inactive); in test [14], 4.73 µM (inactive); in [15], 18.6 µM (inactive); in test [16] it was 10.4 µM (inactive).

Consider `Cc1ccccc1/N=N/c1c(O)ccc2ccccc12`, for which the GI50 in test [1] is > 100 µM (inactive); in test [2], > 100 µM (inactive); in test [3], > 100 µM (inactive); in test [17], > 100 µM (inactive); in test [4], > 100 µM (inactive); in [5], over 100 µM. The GI50 in test [6] is 40.5 µM (inactive); in [18] it was > 100 µM (inactive); in test [7], > 100 µM (inactive); in test [8], > 100 µM (inactive); in test [9], 47.6 µM (inactive); in test [10] it was > 100 µM (inactive). In addition, the GI50 in [12], in test [13], in test [14] and in test [16] was > 100 µM (inactive) in each case.

Consider `CCCCOCn1c(=O)[nH]c(=O)c2ccccc21`, for which the GI50 was > 100 µM (inactive) in [3]; > 100 µM (inactive) in [17]; 32.9 µM (inactive) in [4]; over 100 µM in test [5]; > 100 µM (inactive) in [6]; 13.3 µM (inactive) in test [18]. For the same compound, the GI50 is > 100 µM (inactive) in test [7]; > 100 µM (inactive) in [8]; > 100 µM (inactive) in test [19]; 44.9 µM (inactive) in [9]; > 100 µM (inactive) in [20]; 68.9 µM (inactive) in test [11]. Besides, the GI50 in [12] is 40.3 µM (inactive); in test [13] it was 37.5 µM (inactive); in test [14], > 100 µM (inactive); in test [15] it was 88.1 µM (inactive); in test [16], > 100 µM (inactive).

Take `NNC(=O)c1cc(=O)[nH][nH]1`: the GI50 in [1] was > 100 µM (inactive); in [2], > 100 µM (inactive); in test [17], > 100 µM (inactive); in test [4] it was > 100 µM (inactive); in test [5], over 100 µM; in [18] it was > 100 µM (inactive). Besides, the GI50 in [7], in [8], in test [9], in [10], in test [20] and in test [11] was > 100 µM (inactive) in each case. Besides, the GI50 in test [12], in [13], in [14] and in [15] was > 100 µM (inactive) each time.

Regarding `COc1cccc2c(=O)c3c(O)c4cc(N(C)C)ccc4c(OC(C)=O)c3oc12`, the GI50 was 13.2 µM (inactive) in [1]; 4 µM (inactive) in test [3]; 32.4 µM (inactive) in test [17]; 15.2 µM (inactive) in [4]; 12.7 µM in [5]; 12 µM (inactive) in test [6]. Further, the GI50 was 15.5 µM (inactive) in [18]; 9.98 µM (inactive) in [7]; 5.24 µM (inactive) in test [8]; 12.5 µM (inactive) in [9]; 17.6 µM (inactive) in test [10]; 17.2 µM (inactive) in test [20]. Also, the GI50 in test [11] is 14.5 µM (inactive); in test [12] it was 14.1 µM (inactive); in test [13] it was 15.7 µM (inactive); in test [14], 15.6 µM (inactive); in [15], 18.2 µM (inactive); in test [16], 10.5 µM (inactive).

`CNC(=O)NS(=O)(=O)c1ccc(C)cc1.NS(=O)O`: the GI50 in test [1] is > 100 µM (inactive); in test [2], > 100 µM (inactive); in test [17] it was > 100 µM (inactive); in [4] it was > 100 µM (inactive); in [5], over 100 µM; in [6] it was > 100 µM (inactive). The GI50 in test [18], in [7], in [10], in [20], in test [11] and in test [12] was > 100 µM (inactive) in each case. The GI50 in test [13], in test [14], in [15] and in [16] was > 100 µM (inactive) throughout.

For the compound `CCN1/C(=C/C(C)=C/c2sc3ccccc3[n+]2CC)Sc2ccccc21`, the GI50 in [1] was 0.0223 µM (active); in test [2] it was 0.0574 µM (active); in test [3], 0.172 µM (active); in test [17], 0.0769 µM (active); in test [4], 0.295 µM (active); in test [5], 0.395 µM. For the same compound, the GI50 in [6] is 0.135 µM (active); in [18], 0.239 µM (active); in test [7], 0.212 µM (active); in test [8], 0.203 µM (active); in test [19] it was 0.181 µM (active); in [9] it was 0.0885 µM (active). The GI50 in [20] was 0.265 µM (active); in test [12], 0.307 µM (active); in test [13] it was 0.0948 µM (active); in test [14], 0.034 µM (active); in test [15], 0.0621 µM (active); in [16] it was 0.0285 µM (active).

Consider `COc1cc(-c2oc3c(OC)c(OC)cc(O)c3c(=O)c2OC)ccc1O` [TERNATIN], for which the GI50 in test [3] is 11.7 µM (inactive); in test [17] it was 1.17 µM (inactive) and 2.19 µM (inactive); in test [5], 4.54 µM and 6.24 µM; in [8], 7 µM (inactive); in test [9], 11.4 µM (inactive); in test [10] it was 20.4 µM (inactive). Further, the GI50 was 6.18 µM (inactive) and 7.5 µM (inactive) in test [20]; 21.1 µM (inactive) in [11]; > 100 µM (inactive) in test [12]; 20.7 µM (inactive) in test [13]; 27.5 µM (inactive) in test [14].
